In this series the test system is actinic keratoses. Conditions: 0.1% in a dermatologically acceptable cream base.

Structures are written as SMILES.

Among the data in US9585962B1, “Treatment for actinic keratoses” (priority 2013, dated 2017) are actinic keratoses cleared and skin irritation values, retold here.

As for `COc1cc2c(c(OC)c1OC)-c1ccc(OC)c(=O)cc1[C@@H](NC(C)=O)CC2` [colchicine], the actinic keratoses cleared is 35-40% and the skin irritation entry was “significant level of skin irritation”.
